Source: patent publication US20230288411A1, “POLYPEPTIDE, MULTIMER, SOLID PHASE, MEASUREMENT METHOD FOR TEST SUBSTANCE, AND REAGENT KIT” (SYSMEX CORPORATION, priority 2020, published 2023)

Tests used:
L-biotin-labeled albumin = assay: SPR (Biacore T200) binding evaluation to L-biotin-labeled albumin; set-up: species or system bovine; details: analyte flowed at 30 μL/min up to 100 nM, single cycle method, albumin immobilized on sensor chip
Method: (§1) A binding ability of D-streptavidin obtained in Example 1 to D-biotin as a natural form and L-biotin as an optical isomer of D-biotin was evaluated by an intermolecular interaction analyzer (Biacore T200) using SPR as a measurement principle.
Similarly, L-biotin-labeled albumin was prepared using L-biotin-AC5-OSu [see (Amidation of L-biotin) described in Example 3 above].
Bovine serum albumin was immobilized on flow cells 1 and 3 of a CMS sensor chip (manufactured by Cytiva) of a Biacore T200 system at a target level of 400 RU by an amine coupling method with an amine coupling kit (Cytiva). Further, L-biotin-labeled albumin and D-biotin-labeled albumin were immobilized at a target level of 400 RU to flow cells 2 and 4, respectively, similarly by an amine coupling method. Blocking was performed in each flow cell with 1 M ethanolamine solution, pH 8.5 (manufactured by Cytiva). […]
(§2) Using HBS-EP+(manufactured by Cytiva) as a running buffer, the prepared D-tamavidin (trademark) 2 was flowed into each flow cell at a flow rate of 30 μL/min in the range of 100 pM to 100 nM by a single cycle method, and binding and dissociation to D-biotin or L-biotin was evaluated by Biacore T200 Evaluation Software (manufactured by Cytiva).

D-biotin-labeled albumin = assay: SPR (Biacore T200) binding evaluation to D-biotin-labeled albumin; set-up: species or system bovine; details: analyte flowed at 30 μL/min up to 100 nM, single cycle method, albumin immobilized on sensor chip
Method: as §1
An N,N-dimethylformamide solution (16.3 μL) containing 10 mg/mL D-biotin-AC5-OSu (manufactured by DOJINDO LABORATORIES) was added to 2.8 mL of 50 mg/mL bovine serum albumin/0.1 M phosphate buffer solution (pH 7.5), and the mixture was stirred, then allowed to stand at 35° C. for 1 hour. Thereafter, desalting was performed by PD-10 (17085101, manufactured by Cytiva) equilibrated with a 0.1 M phosphate buffer (pH 7.5), and D-biotin-labeled albumin was recovered. The number of labeled D-biotin per molecule of albumin by HABA method was 0.4.
Bovine serum albumin was immobilized on flow cells 1 and 3 of a CMS sensor chip (manufactured by Cytiva) of a Biacore T200 system at a target level of 400 RU by an amine coupling method with an amine coupling kit (Cytiva). […]
as §2

Substance | binding to L-biotin-labeled albumin (SPR sensorgram) (L-biotin-labeled albumin) | binding to D-biotin-labeled albumin (SPR sensorgram) (D-biotin-labeled albumin)
D-streptavidin: tetrameric polypeptide of 13th to 139th amino acids of SEQ ID NO: 1 composed of D-amino acid residues | very strongly bound | not substantially bound
natural core streptavidin: commercially available tetrameric natural core streptavidin (manufactured by Roche) [reference compound] |  | very strongly bound
